In US20050137130A1, “Medical treatment” (priority 2001, published 2005):

Columns and labels:
Mouse CD4+T-cells = assay: ELISA assay for Notch signalling modulator activity in mouse CD4+ cells (IL-10, plate-bound hDelta1-IgG4Fc); assay type: cell-based; details: all concentrations tested, added at start of culture, day 3
Method: Spleens were removed from female Balb/c mice 8-10 weeks old and passed through a […] cell strainer into 20 ml R10F medium (R10F-RPMI 1640 media (Gibco Cat No 22409) plus 2 mM L-glutamine, 50 μg/ml Penicillin, 50 μg/ml Streptomycin, 5×10^−5 M β-mercapto-ethanol in 10% fetal calf serum). The cell suspension was spun (1150 rpm 5 min) and the media removed.
The cells were incubated for 4 minutes with 5 ml ACK lysis buffer (0.15M NH4Cl, […], O. 1 mM Na2EDTA in double distilled water) per spleen (to lyse red blood cells). The cells were then washed once with R10F medium and counted. CD4+ cells were purified from the suspensions by positive selection on a Magnetic Associated Cell Sorter (MACS) column (Miltenyi Biotec, Bisley, UK: Cat No 130-042-401) using CD4 (L3T4) beads (Miltenyi Biotec Cat No 130-049-201), according to the manufacturer's directions. […]
Mouse CD4+T-cells (prepared as above) were cultured at 2×10^5/well on anti-CD3 coated plates with or without plate-bound hDelta1-IgG4Fc fusion protein (prepared as described above) and soluble anti-CD28. […] Soluble hDelta1-IgG4Fc fusion protein was added into culture at the start at the concentrations shown and IL-10 was measured in supernatants on day 3 by ELISA using antibody pairs from R & D Systems (Abingdon, UK).

[1] = test system: Notch signalling in CHO-N2 (N27#11) cells expressing full length human Notch2; assay: CHO-N2 (N27) luciferase reporter assay, CHO-Delta antagonist assay; assay type: cell-based; details: soluble protein, N27#11 reporter cells co-cultured with CHO-Delta cells overnight
Source text: An adenovirus major late promoter TATA-box motif with BglII and HindIII cohesive ends was generated as follows:
This was cloned into plasmid pGL3-Basic (Promega) between the BgiII and HindIII sites to generate plasmid pGL3-AdTATA.
A TP1 promoter sequence (TP1; equivalent to 2 CBF1 repeats) with BamH1 and BglII cohesive ends was generated as follows:
This sequence was pentamerised by repeated insertion into a BglII site and the resulting TP1 pentamer (equivalent to 10 CBF1 repeats) was inserted into pGL3-AdTATA at the BglII site to generate plasmid pLOR91.
A cDNA clone spanning the complete coding sequence of the human Notch2 gene (see, eg GenBank Accession No AF315356) was constructed as follows. A 3′ cDNA fragment encoding the entire intracellular domain and a portion of the extracellular domain was isolated from a human placental cDNA library (OriGene Technologies Ltd., USA) using a PCR-based screening strategy. […]
CHO-Delta cells (as described above) were maintained in DMEM plus 10% (HI)FCS plus glutamine plus P/S plus 0.5 mg/ml G418. Just prior to use the cells were removed from a T80 flask using 0.02% EDTA solution (Sigma), spun down and resuspended in 10 ml DMEM plus 10%(HI)FCS plus glutamine plus P/S. 10 μl of cells were counted and the cell density was adjusted to 5.0×10^5 cells/ml with fresh DMEM plus 10%(HI)FCS plus glutamine plus P/S. […]

Row | Substance | effect of soluble protein on increased IL-10 release induced by plate-bound hDelta1-IgG4Fc (Mouse CD4+T-cells) | inhibition of Notch signalling from CHO-Delta cells [1]
1 | hDelta1-IgG4Fc: fusion protein comprising the extracellular domain of human Delta1 fused to the Fc domain of human IgG4 (SEQ ID NO: 5) | substantially reversed | inhibition of Notch signalling
2 | hJagged1EGF1&2-IgG4Fc: human jagged1 sequence up to the end of EGF2 (leader, amino terminal, DSL, EGF1+2) fused to the Fc domain of human IgG4 (SEQ ID NO: 10) | – | substantially the same inhibition of Notch signalling
